Test results reported in the supplement of paper PMC11061612.

What was measured:
Test in all cases: combination Emax (second highest fraction inhibited in the dose matrix, 72 h); higher = more inhibition; extreme values may be limits of the assay
[1] = system: EMC-BAC-2 (Non-Small Cell Lung Carcinoma)
Outline: (§1)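 Bliss excess equals the observed combination effect minus the expected value EA + EB − EA·EB, where EA and EB are the effects of each agent alone. Combination Emax is the second-highest inhibition within the matrix. Inhibition was scaled from CellTiter-Glo 2.0 luminescence, with 0 set by vehicle wells and 1 by blank wells, after 72 hours of two-drug dosing of cells plated in 1536-well plates.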

EW-3 (Ewing's Sarcoma) = system: EW-3 (Ewing's Sarcoma)
Outline: as §1

GI-1 (Glioblastoma) = system: GI-1 (Glioblastoma)
Outline: as §1

[2] = system: H-EMC-SS (Chondrosarcoma)
Outline: as §1

[3] = system: KP-2 (Pancreatic Carcinoma)
Outline: as §1

[4] = system: KU-19-19 (Bladder Carcinoma)
Outline: as §1

[5] = system: KYSE-150 (Esophageal Squamous Cell Carcinoma)
Outline: as §1

[6] = system: KYSE-50 (Esophageal Squamous Cell Carcinoma)
Outline: as §1

[7] = system: LOU-NH91 (Squamous Cell Lung Carcinoma)
Outline: as §1

[8] = system: MFE-319 (Endometrial Carcinoma)
Outline: as §1

NB7 (Neuroblastoma) = system: NB7 (Neuroblastoma)
Outline: as §1

[9] = system: NCI-H1573 (Lung Adenocarcinoma)
Outline: as §1

[10] = system: NCI-H513 (Other Solid Carcinomas)
Outline: as §1

[11] = system: NCI-N87 (Gastric Carcinoma)
Outline: as §1

NH-12 (Neuroblastoma) = system: NH-12 (Neuroblastoma)
Outline: as §1

[12] = system: OCUB-M (Breast Carcinoma)
Outline: as §1

[13] = system: PF-382 (T-Lymphoblastic Leukemia)
Outline: as §1

RPMI-7951 (Melanoma) = system: RPMI-7951 (Melanoma)
Outline: as §1

[14] = system: SNU-C1 (Colorectal Carcinoma)
Outline: as §1

[15] = system: TGBC11TKB (Gastric Carcinoma)
Outline: as §1

SMILES | combination Emax [1] | combination Emax (EW-3 (Ewing's Sarcoma)) | combination Emax (GI-1 (Glioblastoma)) | combination Emax [2] | combination Emax [3] | combination Emax [4] | combination Emax [5] | combination Emax [6] | combination Emax [7] | combination Emax [8] | combination Emax (NB7 (Neuroblastoma)) | combination Emax [9] | combination Emax [10] | combination Emax [11] | combination Emax (NH-12 (Neuroblastoma)) | combination Emax [12] | combination Emax [13] | combination Emax (RPMI-7951 (Melanoma)) | combination Emax [14] | combination Emax [15]
CN(CCO)CC[C@H](CSc1ccccc1)Nc1ccc(S(=O)(=O)NC(=O)c2ccc(N3CCC([C@@H](O)c4ccccc4-c4ccc(Cl)cc4)CC3)cc2)cc1S(=O)(=O)C(F)(F)F [AZD4320] + CN(C)CCCOc1ccc(-c2ccc3ncc4c(c3c2)n(C2CCOCC2)c(=O)n4C)cn1 [AZD0156] (first compound max 1 µM, 7x7, partner max 1 µM) | 0.185 | 0.95 | 0.342 | 0.46 | 0.897 | 0.098 | 0.206 | 0.0706 | 0.476 | 0.288 | 0.108 | 0.2 | 0.143 | 0.477 | 0.909 | 0.516 | 0.98 | 0.333 | 0.439 | 0.258
CS(=O)(=O)CCNCc1ccc(-c2ccc3ncnc(Nc4ccc(OCc5cccc(F)c5)c(Cl)c4)c3c2)o1 [Lapatinib] + C[C@@H](Oc1cc(-c2cnn(C3CCNCC3)c2)cnc1N)c1c(Cl)ccc(F)c1Cl [Crizotinib] (first compound max 10 µM, 7x7, partner max 10 µM) | 0.909 | 0.91 | 0.909 | 0.576 | 0.788 | 0.918 | 0.984 | 0.93 | 0.924 | 0.511 | 0.565 | 0.786 | 0.557 | 0.978 | 0.873 | 0.697 | 0.978 | 0.975 | 0.675 | 0.622
Cc1c2c(nn1C)CSCc1cc(n(C)n1)CSc1cc(c3ccccc3c1)OCCCc1c(C(=O)O)n(C)c3c-2c(Cl)ccc13 [AZD5991] + C[C@@H](Nc1cc(F)cc(F)c1)c1cc(C(=O)N(C)C)cc2c(=O)cc(N3CCOCC3)oc12 [AZD8186] (first compound max 1 µM, 7x7, partner max 3 µM) | 0.632 | 0.636 | 0.883 | 0.476 | 0.254 | 0.212 | 0.281 | 0.317 | 0.371 | 0.401 | 0.686 | 0.318 | 0.339 | 0.442 | 0.313 | 0.986 | 0.27 | 0.939 | 0.439 | 0.548
Cc1c2c(nn1C)CSCc1cc(n(C)n1)CSc1cc(c3ccccc3c1)OCCCc1c(C(=O)O)n(C)c3c-2c(Cl)ccc13 [AZD5991] + CC1(C)CCC(CN2CCN(c3ccc(C(=O)NS(=O)(=O)c4ccc(NCC5CCOCC5)c([N+](=O)[O-])c4)c(Oc4cnc5[nH]ccc5c4)c3)CC2)=C(c2ccc(Cl)cc2)C1 [Venetoclax] (first compound max 1 µM, 7x7, partner max 1 µM) | 0.694 | 0.953 | 0.954 | 0.515 | 0.239 | 0.588 | 0.17 | 0.418 | 0.221 | 0.881 | 0.513 | 0.302 | 0.156 | 0.23 | 0.892 | 0.996 | 0.337 | 0.903 | 0.574 | 0.792
CN(CCO)CC[C@H](CSc1ccccc1)Nc1ccc(S(=O)(=O)NC(=O)c2ccc(N3CCC([C@@H](O)c4ccccc4-c4ccc(Cl)cc4)CC3)cc2)cc1S(=O)(=O)C(F)(F)F [AZD4320] + Cc1cc2ncnn2cc1Nc1ncc2c(n1)n(C1CCOCC1)c(=O)n2C [AZD7648] (first compound max 1 µM, 7x7, partner max 10 µM) | 0.258 | 0.958 | 0.457 | 0.524 | 0.857 | 0.119 | 0.478 | 0.096 | 0.346 | 0.264 | 0.0542 | 0.135 | 0.269 | 0.544 | 0.927 | 0.66 | 0.983 | 0.516 | 0.633 | 0.237
COc1cccc(OCCCN)c1-c1cc(Nc2cnc(C#N)cn2)n[nH]1 [Prexasertib] + Cc1cc2ncnn2cc1Nc1ncc2c(n1)n(C1CCOCC1)c(=O)n2C [AZD7648] (first compound max 1 µM, 7x7, partner max 10 µM) | 0.538 | 0.736 | 0.987 | 0.458 | 0.57 | 0.836 | 0.513 | 0.818 | 0.44 | 0.865 | 0.842 | 0.668 | 0.36 | 0.776 | 0.908 | 0.595 | 0.934 | 0.971 | 0.759 | 0.96
CC1(C)CCC(CN2CCN(c3ccc(C(=O)NS(=O)(=O)c4ccc(NCC5CCOCC5)c([N+](=O)[O-])c4)c(Oc4cnc5[nH]ccc5c4)c3)CC2)=C(c2ccc(Cl)cc2)C1 [Venetoclax] + C[C@@H]1COCCN1C2=NC(=NC(=C2)C3(CC3)[S@](=N)(=O)C)C4=C5C=CNC5=NC=C4 [AZD6738] (first compound max 1 µM, 7x7, partner max 10 µM) | 0.612 | 0.844 | 0.918 | 0.347 | 0.277 | 0.745 | 0.628 | 0.719 | 0.411 | 0.837 | 0.5 | 0.579 | 0.356 | 0.736 | 0.968 | 0.652 | 0.927 | 0.887 | 0.366 | 0.901
CCN(CCO)CCCOc1ccc2c(Nc3cc(CC(=O)Nc4cccc(F)c4)[nH]n3)ncnc2c1 [AZD2811] + C=CCn1c(=O)c2cnc(Nc3ccc(N4CCN(C)CC4)cc3)nc2n1-c1cccc(C(C)(C)O)n1 [AZD1775] (first compound max 1 µM, partner max 1 µM) | 0.223 | 0.402 | 0.947 | 0.257 | 0.206 | 0.765 | 0.533 | 0.301 | 0.383 | 0.578 | 0.662 | 0.178 | 0.368 | 0.66 | 0.877 | 0.779 | 0.978 | 0.697 | 0.151 | 0.818
COc1cccc(OCCCN)c1-c1cc(Nc2cnc(C#N)cn2)n[nH]1 [Prexasertib] + C[C@@H]1COCCN1C2=NC(=NC(=C2)C3(CC3)[S@](=N)(=O)C)C4=C5C=CNC5=NC=C4 [AZD6738] (first compound max 1 µM, 7x7, partner max 10 µM) | 0.497 | 0.819 | 0.962 | 0.383 | 0.398 | 0.836 | 0.621 | 0.818 | 0.461 | 0.826 | 0.808 | 0.669 | 0.363 | 0.718 | 0.925 | 0.585 | 0.917 | 0.957 | 0.73 | 0.977
COc1nnc2ccc(N3CCC(c4ccc(OCCN5CCN(C)C(=O)[C@H]5C)cc4)CC3)nn12 [AZD5153] + CC1(C)CCC(CN2CCN(c3ccc(C(=O)NS(=O)(=O)c4ccc(NCC5CCOCC5)c([N+](=O)[O-])c4)c(Oc4cnc5[nH]ccc5c4)c3)CC2)=C(c2ccc(Cl)cc2)C1 [Venetoclax] (first compound max 1 µM, 7x7, partner max 1 µM) | 0.661 | 0.751 | 0.763 | 0.27 | 0.354 | 0.63 | 0.627 | 0.501 | 0.641 | 0.324 | 0.37 | 0.356 | 0.358 | 0.592 | 0.737 | 0.39 | 0.871 | 0.559 | 0.46 | 0.324
CC1(C)CCC(CN2CCN(c3ccc(C(=O)NS(=O)(=O)c4ccc(NCC5CCOCC5)c([N+](=O)[O-])c4)c(Oc4cnc5[nH]ccc5c4)c3)CC2)=C(c2ccc(Cl)cc2)C1 [Venetoclax] + Cc1cc2ncnn2cc1Nc1ncc2c(n1)n(C1CCOCC1)c(=O)n2C [AZD7648] (first compound max 1 µM, 7x7, partner max 10 µM) | 0.271 | 0.735 | 0.238 | 0.327 | 0.175 | 0.225 | 0.572 | 0.217 | 0.264 | 0.26 | 0.0987 | 0.173 | 0.297 | 0.354 | 0.538 | 0.383 | 0.355 | 0.334 | 0.227 | 0.133
CN(CCO)CC[C@H](CSc1ccccc1)Nc1ccc(S(=O)(=O)NC(=O)c2ccc(N3CCC([C@@H](O)c4ccccc4-c4ccc(Cl)cc4)CC3)cc2)cc1S(=O)(=O)C(F)(F)F [AZD4320] + C[C@@H](Nc1cc(F)cc(F)c1)c1cc(C(=O)N(C)C)cc2c(=O)cc(N3CCOCC3)oc12 [AZD8186] (first compound max 1 µM, 7x7, partner max 3 µM) | 0.383 | 0.898 | 0.813 | 0.727 | 0.827 | 0.315 | 0.298 | 0.283 | 0.768 | 0.427 | 0.49 | 0.289 | 0.342 | 0.638 | 0.998 | 0.835 | 1 | 0.701 | 0.484 | 0.338
